# Data from patent US20060235061A1, “Methods of using benzothiophenone derivatives to treat cancer or inflammation” (QLT,Inc., priority 2002, published 2006).
# Target: T1, Caspase-3 (Homo sapiens, UniProt P42574)
# T1 construct: purchased Calbiochem
# T1 sequence (P42574 29-175 limits assumed): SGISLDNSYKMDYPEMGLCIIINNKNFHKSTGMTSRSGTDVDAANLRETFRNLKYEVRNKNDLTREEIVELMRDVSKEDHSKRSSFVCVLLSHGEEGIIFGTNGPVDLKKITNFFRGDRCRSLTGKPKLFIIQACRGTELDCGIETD
# T1 sequence (P42574 176-277 limits assumed): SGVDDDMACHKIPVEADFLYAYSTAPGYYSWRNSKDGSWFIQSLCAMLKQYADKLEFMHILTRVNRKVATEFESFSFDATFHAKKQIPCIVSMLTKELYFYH
# Assay: Caspase-3 selectivity assay (Calbiochem kit, colorimetric)
# Type: biochemical
# Source text: This is a selectivity assay providing information about the specificity of the compounds. A cysteine residue located within the active pocket of the catalytic domain that is conserved between the […] like caspase-3 and the protein tyrosine phosphatases like PTPN12 has a thiol group within this cysteine amino acid that may interact with specific R-groups with inhibiting compounds with in vitro enzyme inhibiting activity. Also, caspase inhibition can prevent apoptosis from occurring in some cases via the caspase cascade. As the potential for cross-inhibitory activity and nonselectivity exists, the caspase-3 assay is performed on PTN12 inhibitors.
# The Calbiochem caspase-3 assay kit was utilized according to package insert instructions. The assay is useful for screening for caspase-3 inhibitors measuring the protease activity of caspase-3 and other caspase-3-like activities. Cleavage is monitored colorimetrically by measuring the increase in absorbance at 405 nm. Assays were performed in a 96-well microtiter plate format.
compound,measurement,setting,value
O=C1C(=CC=CC=C2Sc3ccccc3N2CCCS(=O)(=O)O)Sc2ccccc21 [3-{2-[4-(3-Oxo-3H-benzo[b]thiophen-2-ylidene)-but-2-enylidene]-benzothiazol-3-yl}-propane-1-sulfonic acid],inhibition at 10 µM,@ 10 μM,3%
same,inhibition at 100 µM,@ 100 μM,27%
